We go through three compounds from ChEMBL document CHEMBL1136974, “Selective inhibitors of tumor progression loci-2 (Tpl2) kinase with potent inhibition of TNF-alpha production in human whole blood” (Bioorg Med Chem Lett, 2009).

A short description of series [1]: Selectivity of Tpl2 to MK2.
Series [2] can be described thus: Selectivity of Tpl2 to p38.
Series [3] in a line: Selectivity of Tpl2 to PKC.
Series [4] is described as follows: Clearance in rat. The series is classed as ADME, organism-based. The conditions noted are these: in vivo.
The nature of series [5]: Selectivity of Tpl2 to Src.
Series [6] in a line: Selectivity of Tpl2 to PKA.
Series [7] is described as follows: Selectivity of Tpl2 to CAMK2.
Series [8] is described as follows: Selectivity of Tpl2 to EGFR.
Series [9] is described as follows: Membrane permeability by PAMPA assay. Format: ADME. The conditions noted are these: read-out: permeability.
The nature of series [10]: AUC in rat at 100 mg/kg, po. The series is classed as ADME, organism-based. More on the design: dose 100 mg/kg, route oral. To be noted: plasma.
Series [11] can be described thus: Cmax in rat at 100 mg/kg, po. The series is classed as ADME, organism-based. Also on record: dose 100 mg/kg, route oral. To be noted: in vivo.

Turning to `N#Cc1cnc2c(Cl)cc(NCc3cn(-c4ccncc4)nn3)cc2c1Nc1ccc(F)c(Cl)c1`, the fold change (FC) in [1], in [2], in [3], in series [5], in [6] and in series [7] was 10 in each case. The clearance (usually a measure of how efficiently the substance is removed, as volume per time) in [4] was 28 mL/min/kg.
With `CCN1CCC(n2cc(CNc3cc(Cl)c4ncc(C#N)c(Nc5ccc(F)c(Cl)c5)c4c3)nn2)CC1`, the fold change (FC) in series [8] was 6880; in series [1] it was 10; in [2], 10; in [3], 10; in series [5] it was 10; in series [6], 10. For the same compound, in series [7], the fold change (FC) was 10. Besides, the Papp in [9] is 0.36 ×10⁻⁶ cm/s. The exposure (AUC) (as a rule, concentration integrated over time) in series [10] was 4840 ng·h/mL. Besides, the Cmax – broadly, the highest concentration seen after dosing – in [11] stood at 517 ng/mL.
Consider `N#Cc1cnc2c(Cl)cc(NCc3cn(Cc4ccncc4)nn3)cc2c1Nc1ccc(F)c(Cl)c1`, for which the fold change (FC) in series [1], in series [2], in series [3], in series [5], in series [6] and in series [7] was 10 each time. This compound yielded a clearance in [4] of 88 mL/min/kg.
